Data on one compound can be found in US9278143B2, “Imaging agents, process for the preparation thereof and pharmaceutical compositions containing same” (CENTRE NATIONAL DE LA RECHERCHE SCIENTIFIQUE (CNRS), priority 2011, dated 2016).

The test system of series [1] is A549, H460, HCT116, U87MG tumors. The experiment in a line: Tumor fixation kinetics and ex vivo biodistribution, results stated across the tumor models. Format: in vivo, mouse. On the procedure:
(§1) In the right rear paw of Swiss nude mice (N=12), 1 to 2×10^6 tumor cells are inoculated subcutaneously, forming a group of 3 mice for each tumor cell line (A549 human lung adenocarcinoma model; H460 human lung carcinoma model; HCT116 human colorectal carcinoma model; U87MG human glioblastoma model).
(§2) When the tumors reach a volume of between 0.5 and 1 cm, the compound of Example 3 (200 μl) solubilized at 10 nmol/ml in phosphate buffer solution (PBS) is injected intravenously.
(§3) Under gas anesthesia, 5 acquisitions are carried out at various times of the experiment (2, 4, 6, 8 and 24 hours) using a Caliper IVIS Lumina II apparatus (ex=680 nm; em=720 nm). In parallel, blood samples are taken.
(§4) After the animals are euthanized by cervical dislocation, the organs (kidney, liver, spleen, lung, tumor, blood, muscle, heart, intestine) are taken and ex vivo acquisition is carried out (Lumina II: ex=680 nm; em=720 nm).

Series [2] relates to U87MG (human glioblastoma) tumor cells. The experiment in a line: Interaction with tumor development, bioluminescence. Format: in vivo. Here is the method:
In the right rear paw of Swiss nude mice (N=12), 3×10^6 U87MG (human glioblastoma) tumor cells are inoculated subcutaneously. When the tumor reaches a volume of 0.5 cm, luciferin (2 mg/mouse) is injected intraperitoneally in order to carry out bioluminescence acquisition and quantification at D0.
The animals are divided into 3 groups of 4 to form a control group with no injection; a group receiving a single intravenous injection of the compound of Example 3 (2 nmol in 200 μl); and a group receiving a weekly intravenous injection for 4 weeks of the compound of Example 3 (2 nmol in 200 μl). Lastly, bioluminescence acquisition and quantification are carried out 3 times per week after the intraperitoneal injection of luciferin.

The test system of series [3] is K-rasLA1 murine model spontaneously developing bronchioloalveolar carcinoma. Kind of series: Targeting of spontaneous tumors, ex vivo lung fluorescence. The format is in vivo, mouse. As to conditions: K-rasLA1 mice, 200 μl at 10 nmol/ml i.v. Here is the method:
On the K-rasLA1 murine model spontaneously developing bronchioloalveolar carcinoma, tumor development is controlled by X-ray scanner synchronized on respiration before injection of the product to be tested. The compound of Example 3 (200 μl) solubilized at 10 nmol/ml in phosphate buffer solution (PBS) is then injected intravenously.
After the animals are euthanized, the lungs are taken to be fixed by tracheal injection of neutral formalin. Acquisition of fluorescence ex vivo is carried out using a Caliper IVIS Lumina II apparatus (ex=680 nm; em=720 nm). A photograph of the excised lung is also taken.

Series [4] concerns U87MG human glioblastoma model. The experiment in a line: Targeting of heterotopically-transplanted tumors, fluorescence imaging. Format: in vivo, mouse. As to conditions: U87MG xenograft in Swiss nude mice, 2 nmol i.v., t24h. On the procedure: as §1, §2, §3, §4
The test system of series [5] is A549 human lung adenocarcinoma model. The description is as above. Format: in vivo, mouse. The conditions noted are these: A549 xenograft in Swiss nude mice, 2 nmol i.v., t24h. Here is the method:
as §1, §2, §3, §4

The test system of series [6] is H460 human lung carcinoma model. Described as above. Format: in vivo, mouse. The conditions noted are these: H460 xenograft in Swiss nude mice, 2 nmol i.v., t24h. On the procedure:
as §1, §2, §3, §4

Series [7] deals with HCT116 human colorectal carcinoma model. The description is as above. Format: in vivo, mouse. The conditions noted are these: HCT116 xenograft in Swiss nude mice, 2 nmol i.v., t24h. On the procedure:
as §1, §2, §3, §4

The nature of series [8]: Plasma pharmacokinetics after intravenous injection. The format is in vivo, mouse. Also noted: distribution volume: unit not given here. The conditions noted are these: female Swiss nude mice, 2 nmol/animal. Here is the method:
In female Swiss nude mice (N=18), the compound of Example 3 solubilized to 10 nmol/ml in 0.9% NaCl solution is injected intravenously (200 μl) into the caudal vein. Blood is collected at various times (5 and 30 minutes then 2, 4, 8 and 24 hours; 3 mice/sample time) and, after centrifugation, the supernatant plasma is transferred to heparinized tubes. The sample is then diluted in 50 μl of a 20 mM ammonium formate/acetonitrile/formic acid 50/50/0.1 buffer mixture to be analyzed by UPLC-MS/MS, ESI+.

Broadly, the half-life is the time needed for the level to fall by half in the phase considered. Usually clearance stands for the volume of plasma or blood freed of the substance per unit of time.

Take `CC[N+]1=C(/C=C/C=C/C=C2/N(CCCCCC(=O)NCc3ccc4c(c3)Cc3cc(OCCCNc5cc(C)ccn5)ccc3CC4CC(=O)O)c3ccc4c(S(=O)(=O)O)cc(S(=O)(=O)O)cc4c3C2(C)C)C(C)(C)c2c1ccc1c(S(=O)(=O)O)cc(S(=O)(=O)O)cc21` (centres unmarked) [Example 3, Cy™ 5.5 Conjugate of the Compound of Preparation 1]: the “biodistribution in the principal organs” value in series [1] (ex vivo, 24 hours after injection) was “high specificity of the probe for the tumor”. In series [1] (ex vivo, 24 hours after injection, on average), the “signal of tumor volume relative to muscle tissue” value is given as 12 times. Moreover, the tumor/kidney ratio in series [1] (ex vivo, t24h) came out at 2. The “visibility of targeted tumors by fluorescence imaging” value in series [1] (whatever cancer line, 2 nmol i.v., 24 hours post-injection) is listed as “clearly visible”. In addition, the “tumor growth by bioluminescence” value in series [2] (U87MG in Swiss nude mice, control, single i.v. injection, or weekly i.v. injection for 4 weeks, 2 nmol) is “identical for the three groups”. Besides, the “anti- or pro-angiogenic effect” value in series [2] (single or multiple injections, 2 nmol/mouse) was “No anti- or pro-angiogenic effect is observed”. Moreover, in series [3], the “targeting of neoplastic lesions formed in situ” value is “strong potential of targeting”. Besides, the tumor/healthy tissue ratio in series [4] worked out at 3.5; in series [5], 2.3; in series [6], 1.66; in series [7], 2. The distribution volume in series [8] was determined as 1. The same compound had a half-life in series [8] (mouse, plasma) of 15 h. Also, in series [8] (mouse, plasma, read-out: plasma clearance rate), the clearance worked out at 0.8 mL/min/kg.
